According to patent publication US10981932B2, “Macrocyclic indole derivatives” (Bayer Aktiengesellschaft, priority 2016, dated 2021):
Counter-ions that a name gives are not always drawn. Like-named read-outs stand apart in the source and are kept apart here.

Assays:
MCL-1 = MCL-1 (Homo sapiens, UniProt Q07820); assay: Protein-protein interaction assay MCL-1/Noxa BH3 peptide (MCL-1 assay), TR-FRET; assay type: binding; conditions: MBP-MCL-1 / Noxa BH3-derived peptide, median
In short: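 Inhibition values were normalized between DMSO controls with all reagents and controls lacking MCL-1. The binding competition used 1 nM MBP-MCL-1 in pH 7 Tris buffer containing 50 mM KF and 100 mM NaCl, with a 10 min compound preincubation at 22 °C.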

SUDHL10 [1] = assay: Anti-proliferative effect (CellTiter-Glo, 72 h), SUDHL10; assay type: cell-based; conditions: SUDHL10 cells, antiproliferation, median, read-out: Antiproli SUDHL10 [M] (median)
In short: (§1)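 Luminescence from CellTiter-Glo, read 10 min after reagent addition, reports viable cell content after 72 h of compound treatment at 37 °C. A reference plate read at day 0 gives the starting baseline.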

A2780 = assay: Anti-proliferative effect (CellTiter-Glo, 72 h), A2780; assay type: cell-based; conditions: A2780 cells, median, read-out: IC50 antiproliferation assay A2780 [M] (median)
In short: as §1

SUDHL5 [2] = assay: Induction of cytotoxicity (CellTiter-Glo, 5 h), SUDHL5
SUDHL5 [3] = assay: Induction of caspase-3/7 activity (Caspase-Glo 3/7), SUDHL5; assay type: cell-based; conditions: caspase-3/7 induction, SUDHL5 cells, 3 h treatment, median
In short: (§2)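 Apoptosis induction measured as caspase-3/7 activity (Caspase-Glo 3/7) in DLBCL lines after 3 h treatment at 37 °C; EC50 derived relative to the reference compound's maximal induction, with C0 fixed at 1.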

SUDHL10 [4] = assay: Induction of cytotoxicity (CellTiter-Glo, 5 h), SUDHL10
SUDHL10 [5] = assay: Induction of caspase-3/7 activity (Caspase-Glo 3/7), SUDHL10; assay type: cell-based; conditions: caspase-3/7 induction, SUDHL10 cells, 3 h treatment, median
In short: as §2

SUDHL5 [6] = assay: Anti-proliferative effect (CellTiter-Glo, 72 h), SUDHL5; assay type: cell-based; conditions: SUDHL5 cells, antiproliferation, median, read-out: Antiproli SUDHL5 [M] (median)
In short: as §1

[7] = Homo sapiens, SU-DHL10, 72 h, 72 h
[8] = Homo sapiens, SU-DHL-5, 5 h, read-out: Cytotox SUDHL5 [M] (median), SUDHL5 cells, cytotoxicity induction, CellTiter-Glo, 5 h, median
[9] = Homo sapiens, SU-DHL10, 5 h, read-out: Cytotox SUDHL10 [M] (median), SUDHL10 cells, cytotoxicity induction, CellTiter-Glo, 5 h, median
[10] = Homo sapiens, SU-DHL-5, 72 h, 72 h
[11] = read-out: Cytotox SUDHL5 [M] (median), SUDHL5 cells, cytotoxicity induction, CellTiter-Glo, 5 h incubation, median
[12] = read-out: Cytotox SUDHL10 [M] (median), SUDHL10 cells, cytotoxicity induction, CellTiter-Glo, 5 h incubation, median
[13] = Homo sapiens, SU-DHL10, 72 h, 72 h incubation
[14] = Homo sapiens, SU-DHL-5, 5 h, read-out: Cytotox SUDHL5 [M] (median), SUDHL5 cells, cytotoxicity induction, CellTiter-Glo, 5 h incubation, median
[15] = Homo sapiens, SU-DHL10, 5 h, read-out: Cytotox SUDHL10 [M] (median), SUDHL10 cells, cytotoxicity induction, CellTiter-Glo, 5 h incubation, median
[16] = Homo sapiens, SU-DHL-5, 72 h, 72 h incubation
[17] = read-out: Cytotox SUDHL5 [M] (median), SUDHL5 cells, cytotoxicity induction, CellTiter-Glo, 5 h, median
[18] = read-out: Cytotox SUDHL10 [M] (median), SUDHL10 cells, cytotoxicity induction, CellTiter-Glo, 5 h, median

Sequence of MCL-1 (Q07820 whole entry): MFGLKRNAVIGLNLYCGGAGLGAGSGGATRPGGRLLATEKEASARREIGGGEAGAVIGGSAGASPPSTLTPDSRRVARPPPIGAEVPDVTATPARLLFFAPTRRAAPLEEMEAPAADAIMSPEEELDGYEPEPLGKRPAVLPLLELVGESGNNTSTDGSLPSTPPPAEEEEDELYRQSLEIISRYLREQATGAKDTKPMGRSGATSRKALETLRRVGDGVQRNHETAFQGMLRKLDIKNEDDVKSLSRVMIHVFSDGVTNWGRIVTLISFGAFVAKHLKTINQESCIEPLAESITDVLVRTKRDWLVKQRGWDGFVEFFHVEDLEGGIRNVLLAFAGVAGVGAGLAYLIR

Structure (SMILES) | IC50 (MCL-1) | IC50 (A2780; Homo sapiens, A2780, 72 h) | EC50 (SUDHL5 [3]; Homo sapiens, SU-DHL-5, 3 h) | EC50 (SUDHL10 [5]; Homo sapiens, SU-DHL10, 3 h) | IC50 (A2780) | EC50 (SUDHL5 [3]) | EC50 (SUDHL10 [5]) | IC50 (SUDHL10 [1]; [13]) | also measured
COCCn1nc2c(c1C)-c1cccc3c(CCCOc4cccc5ccccc45)c(C(=O)O)n(c13)CCCCOC2 (single isomer, unassigned; enantiomer 2) [Example 108, 2-(2-methoxyethyl)-3-methyl-7-[3-(naphthalen-1-yloxy)propyl]-2,10,11,12,13,15-hexahydropyrazolo[4′,3′:9,10][1,6]oxazacycloundecino[8,7,6-hi]indole-8-carboxylic acid-N-ethylethanamine Salt (Enantiomer 2)] | 0.0543 µM |  |  |  | 1.52e-05 M | > 33 µM | > 33 µM |  | IC50 (SUDHL10 [1]; 72 h incubation): 1.17e-05 M; IC50 (SUDHL5 [2]; [11]): > 3.3e-05 M; IC50 (SUDHL10 [4]; [12]): > 3.3e-05 M; IC50 (SUDHL5 [6]; 72 h incubation): 1.51e-05 M
COCCn1nc(C2CC2)c2c1COCCCCn1c(C(=O)O)c(CCCOc3cccc4ccccc34)c3cccc-2c31 (single isomer, unassigned; enantiomer 1) [Example 103, 3-cyclopropyl-1-(2-methoxyethyl)-7-[3-(naphthalen-1-yloxy)propyl]-1,10,11,12,13,15-hexahydropyrazolo[4′,3′:9,10][1,6]oxazacycloundecino[8,7,6-hi]indole-8-carboxylic acid-N-ethylethanamine Salt (Enantiomer 1)] | 0.00298 µM | > 3.3e-05 M |  |  | 2.72e-05 M | 2.66 µM | 8.71 µM | 7.52e-06 M | IC50 (SUDHL5 [2]; [11]): 3.55e-06 M; IC50 (SUDHL10 [4]; [12]): 8.83e-06 M; IC50 (SUDHL5 [6]; 72 h incubation): 4.28e-06 M
COCCn1nc2c(c1C1CC1)-c1cccc3c(CCCOc4cccc5ccccc45)c(C(=O)O)n(c13)CCCCOC2 (single isomer, unassigned; enantiomer 2) [Example 086, 3-Cyclopropyl-2-(2-methoxyethyl)-7-[3-(naphthalen-1-yloxy)propyl]-2,10,11,12,13,15-hexahydropyrazolo[4′3′:9,10][1,6]oxazacycloundecino[8,7,6-hi]indole-carboxylic acid-N-ethylethanamine Salt (Enantiomer 2)] | 0.0728 µM |  |  |  | 1.36e-05 M | > 33 µM | > 33 µM |  | IC50 (SUDHL10 [1]; 72 h incubation): 7e-06 M; IC50 (SUDHL5 [2]; [11]): 3.15e-05 M; IC50 (SUDHL10 [4]; [12]): > 3.3e-05 M; IC50 (SUDHL5 [6]; 72 h incubation): 1.72e-05 M
CCc1nn(C)c2c1-c1c(C)ccc3c(CCCOc4cccc5cc(F)ccc45)c(C(=O)O)n(c13)CCCCOC2 (racemic) [Example 266, (rac)-3-ethyl-7-{3-[(6-fluoronaphthalen-1-yl)oxy]propyl}1,4-dimethyl-1,10,11,12,13,15-hexahydropyrazolo[4′3′:9,10][1,6]oxazacycloundecino[8,7,6-hi]indole-8-carboxylic Acid] | 0.00259 µM | 2.83e-05 M | 1.79 µM | 4.47 µM |  |  |  | 2.83e-06 M | IC50 (SUDHL5 [2]; [14]): 1.76e-06 M; IC50 (SUDHL10 [4]; [15]): 4.99e-06 M; IC50 (SUDHL5 [6]; [16]): 9.96e-07 M
CCc1nn(C)c2c1-c1c(C)ccc3c(C(C)CCOc4cccc5cc(F)ccc45)c(C(=O)O)n(c13)CCCCOC2 (racemic) [Example 261, 3-ethyl-7-{4-[(6-fluoronaphthalen-1-yl)oxy]butan-2-yl}-1,4-dimethyl-1,10,11,12,13,15-hexahydropyrazolo[4′,3′:9,10][1,6]oxazacycloundecino[8,7,6-hi]indole-8-carboxylic Acid] | 0.00373 µM | 1.85e-05 M | 1.77 µM | 3.52 µM |  |  |  | 4.66e-06 M | IC50 (SUDHL5 [2]; [14]): 2.02e-06 M; IC50 (SUDHL10 [4]; [15]): 3.8e-06 M; IC50 (SUDHL5 [6]; [16]): 1.17e-06 M
Cc1ccc2c(C(C)CCOc3cccc4ccccc34)c(C(=O)O)n3c2c1-c1c(C)nn(C)c1COCCCC3 (racemic) [Example 256, 1,3,4-trimethyl-7-[4-(naphthalen-1-yloxy)butan-2-yl]-1,10,11,12,13,15-hexahydropyrazolo[4′,3′:9,10][1,6]oxazacycloundecino[8,7,6-hi]indole-8-carboxylic Acid] | 0.0425 µM | 2.03e-05 M | > 33 µM | > 33 µM |  |  |  | 9.2e-06 M | IC50 (SUDHL5 [2]; [14]): 2.29e-05 M; IC50 (SUDHL10 [4]; [15]): > 3.3e-05 M; IC50 (SUDHL5 [6]; [16]): 1.5e-05 M

Further lines, with some results ahead:

IC50 (MCL-1) | IC50 (A2780; Homo sapiens, A2780, 72 h) | EC50 (SUDHL5 [3]; Homo sapiens, SU-DHL-5, 3 h) | EC50 (SUDHL10 [5]; Homo sapiens, SU-DHL10, 3 h) | IC50 (A2780) | EC50 (SUDHL5 [3]) | EC50 (SUDHL10 [5]) | IC50 (SUDHL10 [1]; [13]) | Structure (SMILES) | also measured
0.0248 µM | > 3.3e-05 M | 10.1 µM | > 33 µM |  |  |  |  | CN1CCCn2c(C(=O)O)c(CCCOc3cccc4ccccc34)c3cccc(c32)-c2c(nn3c2CCCC3)C1 (racemic) [Example 361, (rac)-7-methyl-1-[3-(naphthalen-1-yloxy)propyl]-5,6,7,8,11,12,13,14-octahydro-4H-pyrido[1″,2″:1′,5′]pyrazolo[3′,4′:7,8][1,5]diazecino[9,10,1-hi]indole-2-carboxylic Acid] | IC50 (SUDHL10 [1]; [7]): 7.7e-06 M; IC50 (SUDHL5 [2]; [8]): 1.09e-05 M; IC50 (SUDHL10 [4]; [9]): 1.84e-05 M; IC50 (SUDHL5 [6]; [10]): 3.66e-06 M
0.0802 µM | > 3.3e-05 M | > 33 µM | > 33 µM |  |  |  |  | Cn1nc(CN2CCCCC2=O)c2c1COCCCCn1c(C(=O)O)c(CCCOc3cccc4ccccc34)c3cccc-2c31 (racemic) [Example 325, (rac)-1-methyl-7-[3-(naphthalen-1-yloxy)propyl]-3-[(2-oxopiperidin-1-yl)methyl]-1,10,11,12,13,15-hexahydropyrazolo[4′,3′:9,10][1,6]oxazacycloundecino[8,7,6-hi]indole-8-carboxylic Acid] | IC50 (SUDHL10 [1]; [7]): 1.45e-05 M; IC50 (SUDHL5 [2]; [8]): > 3.3e-05 M; IC50 (SUDHL10 [4]; [9]): > 3.3e-05 M; IC50 (SUDHL5 [6]; [10]): 2.13e-05 M
0.639 µM |  |  |  | 1e-05 M | 30.3 µM | > 33 µM |  | COc1ccc(OCc2nn(C)c3c2-c2cccc4c(CCCOc5cccc6ccccc56)c(C(=O)O)n(c24)CCCCOC3)cc1 (single isomer, unassigned; enantiomer 2) [Example 321, 3-[(4-methoxyphenoxy)methyl]-1-methyl-7-[3(naphthalen-1 yloxy)propyl]-1,10,11,12,13,15-hexahydropyrazolo[4′,3′:9,10][1,6]oxazacycloundecino[8,7,6-hi]indole-8-carboxylic acid-N-ethylethanamine Salt (Enantiomer 2)] | IC50 (SUDHL10 [1]; 72 h): 4.61e-06 M; IC50 (SUDHL5 [2]; [17]): 2.97e-05 M; IC50 (SUDHL10 [4]; [18]): 2.56e-05 M; IC50 (SUDHL5 [6]; 72 h): 1.22e-05 M
0.103 µM |  |  |  | 3.12e-05 M | > 33 µM | > 33 µM |  | Cn1nc(CN2CCCCC2=O)c2c1COCCCCn1c(C(=O)O)c(CCCOc3cccc4ccccc34)c3cccc-2c31 (single isomer, unassigned; enantiomer 2) [Example 327, 1-methyl-7-[3-(naphthalen-1-yloxy)propyl]-3-[(2-oxopiperidin-1-yl)methyl]-1,10,11,12,13,15-hexahydropyrazolo[4′,3′:9,10][1,6]oxazacycloundecino[8,7,6-hi]indole-8-carboxylic Acid (Enantiomer 2)] | IC50 (SUDHL10 [1]; 72 h): 1.3e-05 M; IC50 (SUDHL5 [2]; [17]): > 3.3e-05 M; IC50 (SUDHL10 [4]; [18]): > 3.3e-05 M; IC50 (SUDHL5 [6]; 72 h): 2.48e-05 M
0.048 µM | > 3.3e-05 M | > 33 µM | > 33 µM |  |  |  |  | Cn1nc(CN)c2c1COCCCCn1c(C(=O)O)c(CCCOc3cccc4ccccc34)c3cccc-2c31 (racemic) [Example 338, (rac)-3-(aminomethyl)-1-methyl-7-[3-(naphthalen-1-yloxy)propyl]-1,10,11,12,13,15-hexahydropyrazolo[4′,3′:9,10][1,6]oxazacycloundecino[8,7,6-hi]indole-8-carboxylic Acid] | IC50 (SUDHL10 [1]; [7]): > 3.3e-05 M; IC50 (SUDHL5 [2]; [8]): > 3.3e-05 M; IC50 (SUDHL10 [4]; [9]): > 3.3e-05 M; IC50 (SUDHL5 [6]; [10]): > 3.3e-05 M
